Assays:
rat eye = experiment: Intravitreal safety study, slit lamp examination with modified MacDonald-Shadduck Ocular Grading; type: in vivo; parameters: key to Conjunctiva pathology score / Anterior Chamber pathology score / Iris pathology score / Cornea pathology score: 0: no pathology; 1: slight pathology; 2: moderate pathology; 3/4: severe pathology; details: for Anterior Chamber pathology score / Conjunctiva pathology score / Cornea pathology score / Iris pathology score: rats 1-4
Experimental: Safety study. […] A saline control was administered to the left eye. For this procedure, animals were anesthetized with isoflurane and also received the topical anesthetic proparacaine. Additionally, animals received the topical antibiotic tobramycin after injection. Slit lamp examinations were performed at the indicated time points up to 72 hours post-injection and pathology graded using a modified MacDonald-Shadduck Ocular Grading system with the following scoring scale: 0, no pathology; 1, slight pathology; 2, moderate pathology; 3/4, severe pathology.

human neutrophils = experiment: Human neutrophil adhesion to glass slides with or without fibrinogen; type: cell-based; details: increasing concentrations, 2.5 hours
Experimental: To ascertain whether the binding of PA-dPEG24 has an effect on the ability of neutrophils to adhere to surfaces in vitro, purified human neutrophils were incubated with increasing concentrations of PA-dPEG24, washed twice with PBS, placed on the glass slides, and then incubated in a humidified 37° C. incubator in the presence of 5% C02 for 2.5 hours. Slides were subsequently stained with DAPI (1:1000 in 2% BSA) followed by imaging at 20× by fluorescence microscopy. Quantification of the amount of cell staining was performed using ImageJ analysis (NIH). […] To ascertain if adherence of neutrophils was altered on glass slides pre-coated with fibrinogen, purified human neutrophils were incubated with increasing concentrations of PA-dPEG24, washed twice with PBS, placed on the fibrinogen-coated glass slides, and then incubated in a humidified 37° C. incubator in the presence of 5% C02 for 2.5 hours. Slides were subsequently stained with DAPI (1:1000 in 2% BSA) followed by imaging at 20× by fluorescence microscopy. Quantification of the amount of cell staining was performed using ImageJ analysis (NIH).

ICAM-1/CD54 = ICAM-1/CD54 (Homo sapiens, UniProt P05362); experiment: ELISA-type plate binding assay, ICAM-1
Experimental: To address this hypothesis, an ELISA-type binding assay was developed in which neutrophil ligands (LFA-1 and MAC-1/CR3) and […] cell ligands (ICAM-1/CD54 and ICAM-2/CD102) were bound to microtiter plates. Plates were then incubated with increasing amounts of PA-dPEG24 in 1% gelatin/PBS buffer probed with antibody to the peptide and developed.
To ascertain if PA-dPEG24 could bind ICAM-1 and LFA-1 in plasma, these receptors were coated onto microtiter plates and then incubated with human plasma containing increasing amounts of PA-dPEG24, probed with antibody to the peptide and then developed.

C1q = C1q (Homo sapiens, UniProt P02745+P02746+P02747); experiment: ELISA-type plate binding assay, C1q (positive control ligand)
[1] = 30 min after IVT 160 mg/ml in 5 microliters
[2] = 2 hour after IVT 160 mg/ml in 5 microliters
[3] = 24 hour after IVT 160 mg/ml in 5 microliters
[4] = 48 hour after IVT 160 mg/ml in 5 microliters
[5] = 72 hour after IVT 160 mg/ml in 5 microliters
[6] = Pre-IVT (baseline), eye assigned to RLS-0071

ICAM-1/CD54, sequence (P05362 28-532): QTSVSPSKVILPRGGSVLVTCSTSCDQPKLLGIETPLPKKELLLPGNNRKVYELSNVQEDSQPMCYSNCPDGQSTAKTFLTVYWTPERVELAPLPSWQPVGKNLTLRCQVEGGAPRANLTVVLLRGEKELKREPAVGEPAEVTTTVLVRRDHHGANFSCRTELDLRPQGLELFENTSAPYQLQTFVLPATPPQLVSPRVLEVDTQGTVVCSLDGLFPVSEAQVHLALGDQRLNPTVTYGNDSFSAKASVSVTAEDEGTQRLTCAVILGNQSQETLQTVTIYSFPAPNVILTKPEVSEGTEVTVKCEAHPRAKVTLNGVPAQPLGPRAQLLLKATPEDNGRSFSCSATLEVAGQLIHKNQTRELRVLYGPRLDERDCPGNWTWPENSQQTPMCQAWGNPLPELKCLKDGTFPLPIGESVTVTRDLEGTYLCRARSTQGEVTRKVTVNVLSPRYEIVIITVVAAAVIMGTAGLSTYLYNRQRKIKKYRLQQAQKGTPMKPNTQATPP
C1q, sequence (P02745 23-245): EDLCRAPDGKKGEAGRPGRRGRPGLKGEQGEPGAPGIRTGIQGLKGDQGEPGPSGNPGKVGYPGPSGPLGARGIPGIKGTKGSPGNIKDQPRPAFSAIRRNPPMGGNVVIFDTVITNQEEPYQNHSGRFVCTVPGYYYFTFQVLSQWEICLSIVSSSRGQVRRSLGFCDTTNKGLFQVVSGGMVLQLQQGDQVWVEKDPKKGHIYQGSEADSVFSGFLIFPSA
C1q, sequence (P02746 28-253): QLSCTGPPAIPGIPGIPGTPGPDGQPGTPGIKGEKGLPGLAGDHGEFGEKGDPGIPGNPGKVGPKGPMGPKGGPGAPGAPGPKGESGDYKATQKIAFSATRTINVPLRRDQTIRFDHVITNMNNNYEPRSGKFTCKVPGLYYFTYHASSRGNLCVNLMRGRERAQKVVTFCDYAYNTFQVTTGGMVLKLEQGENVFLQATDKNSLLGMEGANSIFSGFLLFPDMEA
C1q, sequence (P02747 29-245): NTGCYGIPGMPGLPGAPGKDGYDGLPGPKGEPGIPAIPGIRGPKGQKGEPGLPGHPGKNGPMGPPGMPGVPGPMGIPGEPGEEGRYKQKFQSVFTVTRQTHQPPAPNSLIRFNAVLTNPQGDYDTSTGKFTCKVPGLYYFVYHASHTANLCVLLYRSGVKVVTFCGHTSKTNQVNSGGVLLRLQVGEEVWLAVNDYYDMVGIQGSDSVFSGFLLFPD

Q: `CC[C@H](C)[C@H](N)C(=O)N[C@@H](C)C(=O)N[C@@H](CC(C)C)C(=O)N[C@H](C(=O)N[C@@H](CC(C)C)C(=O)N[C@@H](CCC(=O)O)C(=O)N1CCC[C@H]1C(=O)N[C@H](C(=O)N[C@@H](CS)C(=O)N[C@@H](CS)C(=O)N[C@@H](CCC(N)=O)C(=O)N[C@@H](CCC(=O)O)C(=O)N[C@@H](CCCNC(=N)N)C(=O)N[C@@H](C)C(=O)N[C@@H](C)C(=O)NCCOCCOCCOCCOCCOCCOCCOCCOCCOCCOCCOCCOCCOCCOCCOCCOCCOCCOCCOCCOCCOCCOCCOCCOCCC(=O)O)[C@@H](C)CC)[C@@H](C)CC` [RLS-0071] was tested. Which “ocular toxicity by slit lamp after intravitreal injection” value (rat eye; 160 mg/kg (maximal deliverable dose) as printed, all 4 animals, up to 72 hours) did it give?
A: No RLS-0071 related toxicity was observed

Q: What about the “Anterior Chamber pathology score” value (rat eye; [1]) of the same compound?
A: 0

Q: And the Conjunctiva pathology score (rat eye; [1])?
A: 0

Q: What about the Cornea pathology score (rat eye; [1]) of the same compound?
A: 0

Q: And the Iris pathology score (rat eye; [1])?
A: 0

Q: And the “Anterior Chamber pathology score” value (rat eye; [2])?
A: 0

Q: What about the Conjunctiva pathology score (rat eye; [2]) of the same compound?
A: 0

Q: What about the Cornea pathology score (rat eye; [2]) of the same compound?
A: 0

Q: And the Iris pathology score (rat eye; [2])?
A: 0

Q: What about the “Anterior Chamber pathology score” value (rat eye; [3]) of the same compound?
A: 0

Q: What about the Conjunctiva pathology score (rat eye; [3]) of the same compound?
A: 0

Q: What about the Cornea pathology score (rat eye; [3]) of the same compound?
A: 0

Q: What about the Iris pathology score (rat eye; [3]) of the same compound?
A: 0

Q: And the “Anterior Chamber pathology score” value (rat eye; [4])?
A: 0

Q: And the Conjunctiva pathology score (rat eye; [4])?
A: 0

Q: What about the Cornea pathology score (rat eye; [4]) of the same compound?
A: 0

Q: What about the Iris pathology score (rat eye; [4]) of the same compound?
A: 0

Q: What about the “Anterior Chamber pathology score” value (rat eye; [5]) of the same compound?
A: 0

Q: And the Conjunctiva pathology score (rat eye; [5])?
A: 0

Q: And the Cornea pathology score (rat eye; [5])?
A: 0

Q: And the Iris pathology score (rat eye; [5])?
A: 0

Q: And the “Anterior Chamber pathology score” value (rat eye; [6])?
A: 0

Q: And the Conjunctiva pathology score (rat eye; [6])?
A: 0

Q: And the Cornea pathology score (rat eye; [6])?
A: 0

Q: What about the Iris pathology score (rat eye; [6]) of the same compound?
A: 0

Q: What about the “neutrophil adherence to fibrinogen-coated glass slides” value (human neutrophils; fibrinogen-coated glass) of the same compound?
A: dose-dependently decreased neutrophil adherence

Q: What about the “number of neutrophils adhered to glass slides” value (human neutrophils; untreated glass) of the same compound?
A: dose-dependently reduced the number of cells adhered to the slides

Q: And the “binding to ICAM-1” value (ICAM-1/CD54; 1% gelatin/PBS buffer)?
A: bound endothelial receptor ICAM-1

Q: What about the “binding to ICAM-1” value (ICAM-1/CD54; in human plasma) of the same compound?
A: bound dose-dependently

Q: And the “binding to C1q” value (C1q; 1% gelatin/PBS buffer)?
A: bound PA-dPEG24 in a dose-dependent manner

Q: What about the “binding to C1q” value (C1q; in human plasma) of the same compound?
A: bound PA-dPEG24 in a dose-dependent manner

From patent US20240010681A1, “PEPTIDES AND METHODS OF USE” (REALTA LIFE SCIENCES, INC., priority 2020, published 2024)
